Results published in publication PMC3642162 (FEBS Open Bio, 2012).

What was measured:
human TRα-1 = molecular target: T1, human TRα-1 (Homo sapiens, UniProt P10827); assay type: cell-based
T1 sequence (P10827 149-407 isoform P10827-2): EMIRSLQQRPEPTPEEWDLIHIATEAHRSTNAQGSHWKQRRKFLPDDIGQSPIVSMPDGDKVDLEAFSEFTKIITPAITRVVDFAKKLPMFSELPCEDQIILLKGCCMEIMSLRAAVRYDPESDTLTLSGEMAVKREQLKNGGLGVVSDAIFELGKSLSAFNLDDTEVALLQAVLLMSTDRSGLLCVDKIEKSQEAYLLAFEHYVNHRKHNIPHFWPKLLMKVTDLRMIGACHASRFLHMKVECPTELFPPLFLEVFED

human TRα-1 and TRβ-1 = experiment: TR biosensors; assay type: cell-based; details: both biosensor strains
TRα = details: transcriptional activation assay; cited from earlier work
TRα and TRβ = details: cited from earlier work
TRβ = details: cited from earlier work
human ER β = human ER β biosensor, relative to 100% for 17-β-estradiol; cited from earlier work
porcine ER β = porcine ER β biosensor; cited from earlier work

Row | Compound | TR biosensors, qualitative activity (human TRα-1 and TRβ-1) | Other methods, reported activity (TRα and TRβ) | also measured
1 | Cc1cc(OCC(=O)O)cc(C)c1Cc1ccc(O)c(C(C)C)c1 [GC-1, 3,5-dimethyl-4-(4′-hydroxy-3′-isopropylbenzyl)-phenoxy acetic acid] | Agonist, TRβ selective | Agonist, TRβ selective | EC50T3/EC50Ligand·100% (human TRα-1): 89.66%; Detection limit (lowest concentration giving unambiguous growth signal) (human TRα-1; TRα biosensor, visual inspection of dose-response curves): […]; Z′ (human TRα-1; pMIT::TRα-1, Z′ factor, highest vs lowest ligand concentration): 0.79; EC50 (TRα): […]
2 | CC(C)c1cc(Oc2c(Cl)cc(CC(=O)O)cc2Cl)ccc1O [KB-141, 3,5-dichloro-4-(4-hydroxy-3-isopropylphenoxy) phenylacetic acid] | Agonist, TRβ selective | Agonist, TRβ selective | –
3 | N[C@@H](Cc1cc(I)c(Oc2ccc(O)c(I)c2)c(I)c1)C(=O)[O-].O.[Na+] [T3, 3,3′,5-triiodo-L-thyronine sodium salt hydrate] | Agonist | Agonist | –
4 | O=C(O)Cc1cc(I)c(Oc2ccc(O)c(I)c2)c(I)c1 [Triac, 3,3′,5-triiodothyroacetic acid] | Agonist, TRβ selective | Agonist, TRβ selective | Affinity higher than T3 (TRβ): approximately 3 fold; Potency higher than T3 (TRα and TRβ; binding to TRβ): 6 fold
5 | CC(C)(c1ccc(O)cc1)c1ccc(O)cc1 [bisphenol A] | – | – | Relative binding affinity (RBA=EC50Estradiol/EC50Ligand×100 %) (human ER β): 1.15%; Relative binding affinity (RBA=EC50Estradiol/EC50Ligand×100 %) (porcine ER β): 0.13%
